What was measured:
[1] = system: H1299 human lung cancer cells; experiment: H1299 cells survival after cigarette smoke (CS) exposure with/without saliva, Trypan Blue exclusion test; assay type: cell-based
Description: During smoke exposure, the cells were put into a smoking sealed chamber (33.5 cm^3) with CS pressure of 0.3 Bar. Control cells were subjected to the same procedures, but exposed only to fresh air. Cells were exposed to CS for one “puffs” every 15 minute for a 2 hours (120 minutes) period (unless indicated otherwise). Cells were used when it becomes confluent and the medium (with/without saliva) volume was compatibly to the dish in use.
The H1299 cells viability was measured at various time points by Trypan Blue exclusion test, both in exposed and control cells.
The medium covering the dish was collected and cells were trypsinized and centrifuged at 1200×g for 10 minutes. Cell pellets were re-suspended in 1 mL of medium and a sample was collect for cell counting. Cells were stained with the vital dye Trypan Blue at final concentration of 0.25% and were placed on hemocytometer. Visual counting was preformed by inverted microscope.
H1299 cells were incubated for 120 minutes with or without the presence of saliva in the culture medium and exposed to CS. […] Cell viability was evaluated by Trypan blue exclusion dye assay.

[2] = system: p53; experiment: Total p53 expression levels, Western blot analysis; assay type: cell-based, human; conditions: 2 mM GSH, exposure of CS 120 minutes and 33% saliva (FIG. 17)
Description: Western blot analysis was used to assay the protein expression levels of the P53, using β-actin signal as a loading reference. Samples with equal amount of protein (20 μg protein/lane) were prepared in 2× sample buffer (0.125 M 2-amino-2-(hydroxymethyl)propane-1,3-diol (Tris)-HCl, pH 6.8, glycerol (20% v/v), SDS (4% w/v), 0.14 M β-mercaptoethanol and bromophenol blue (0.005% w/v)). The samples were boiled for 10 minutes and subjected to electrophoresis through 12% SDS-polyacrylamide gel in running buffer, or stored at −20° C. until further use. The gels were then electrophoretically transferred to nitrocellulose membranes for 90 minutes at 90 W, in transfer buffer containing 20 mM Tris-HCl, pH 6.8, 150 mM Glycine and 20% (v/v) methanol. Blots were blocked in 5% non-fat milk in PBS-T (62.5 mM sodium phosphate buffer, pH 7.4, containing 100 mM NaCl and 0.1% (v/v) Tween-20) and then incubated for 2 hours or overnight at 4° C. with rabbit antihuman p53 1:5000 or mouse antihuman β-actin 1:15000. […] Binding of antibodies to the membrane was detected with an EZ-ECL-detection reagent, X-Omat blue XB-1 Kodak scientific Imaging Film for 10 seconds-15 minutes.
The effect of CS on p53 accumulation was analyzed. […] Western blot analysis was performed and the amount of p53 was evaluated.

[3] = system: H1299 cells; experiment: Protein carbonyl assay (ELISA) on H1299 cells exposed to CS; assay type: cell-based, human; conditions: 5 mM PenA
Description: Protein carbonyl concentration was determined by enzyme-linked immunosorbent assay (ELISA), using the Zentech PC Test Kit (Zenith Technology, Dunedin, New Zealand). Briefly, protein cell extractions were allowed to react with a dinitrophenylhydrazine (DNP) solution (200 μl). The DNP-reacted proteins bound non-specifically to an ELISA plate, and the unconjugated DNP and non-protein entities were washed away. The adsorbed DNP-protein was then probed with an anti-DNP-biotin antibody, followed by a streptavidin-linked HRP probe. Then the […] reagent that contained peroxide was added to catalyze the oxidation of TMB. Finally, the reaction was stopped by the addition of a stopping reagent (acid, provided with the kit), and the absorbance was measured for each well at 450 nm using a spectrophotometer. Along with controls and samples, protein carbonyl standards were also included in the assay. The content of the carbonyl protein in the mitochondrial samples was determined as pmol/mg protein, using the standard curve.

[4] = system: H1299 lung cancer cells; experiment: Mitochondrial membrane potential (ΔΨm), JC-1 incorporation by flow cytometry; assay type: cell-based, human; conditions: 5 mM agent
Description: (§1) For mitochondrial oxidative damage, pellets were re-suspended in 0.5 ml of 10 μg/ml 10-N-nonyl acridine orange (NAO) and incubated for 30 minutes at 37° C. and dark condition. Mitocondrial membrane potential was measured after staining cells with 1 μg/ml JC-1 (5,5′,6,6′-tetrachloro-1,1′,3,3′-tetraethylbenzimidazolyl carbocyanine iodide; Molecular Probes) for 30 minutes at 37° C. in the dark. Uncoupling with carbonyl cyanide p-trifluoromethoxyphenylhydrazone (FCCP) (20 µM for 30 minutes) was used as positive control.
Mitochondrial membrane permeabilization is an essential step leading to apoptosis. Disruption of ΔΨm irreversibly commits cells to undergo death and is an early marker of apoptosis. Furthermore, cigarette smoke was previously shown to induce mitochondrial depolarization in human monocytes. Therefore, reduced ΔΨm, as measured by diminished incorporation of the fluorescent dye JC-1, was used as an early indicator for CS-induced apoptosis.
H1299 lung cancer calls were exposed for 120 minutes to CS with or without saliva. […] JC-1 incorporation was measured by flow cytometry method.

[5] = system: H1299 cells; experiment: Cell viability by Propidium Iodide (PI) fluorescence, flow cytometry, after CS exposure; assay type: cell-based, human; conditions: mean ± SD, n = 4
Description: FACS was used to monitor cell-cycle and cell-viability after CS exposure with/without saliva presence. After cells were exposed to ROS attack, medium covering the cells was removed and cells were trypsinized. For cell viability, cell suspension was centrifuged at 1200×g for 10 minutes and the pellets were re-suspended in 0.5 ml of 10 μg/ml Propidium iodide (PI) and incubated for 15 minutes at dark condition, 4° C. The cell suspensions were thereafter analyzed with a flow cytometer, using CellQuest software. […] PI is excluded by viable cells, and penetrates to cell membranes of dead cells. H1299 cells were incubated for 120 minutes with or without the presence of saliva in the culture medium and exposed to CS. […] Cell viability was evaluated by fluorescence assay.

[6] = system: H1299 lung cells; experiment: Mitochondrial oxidative damage, NAO binding to cardiolipin by flow cytometry; assay type: cell-based, human; conditions: 5 mM agent, 120 minutes of CS exposure (FIG. 15)
Description: as §1
The mitochondrial quality is the amount of all the intra-cellular mitochondria and their content, and it is an important index of mitochondrial injury. Nonyl-Acridine Orange (NAO) is a fluorescent dye that can bind specifically to unoxidizable cardiolipin (CL), a mitochondrial phospholipid, independent of the mitochondria energetic state (ΔΨm). NAO lost its affinity for CL with a hydroperoxide fatty acid (CL-OOH).
NAO flow cytometry was used to measure the quality of H1299 lung cells exposed for 120 minutes to CS with or without saliva.

[7] = system: oral cancer cells (SCC-25); experiment: Oral cancer cells (SCC-25) survival after CS exposure with/without saliva, Trypan blue assay; assay type: cell-based; conditions: 5 mM PenA, CS 120 minutes
Excerpt: In FIG. 18A, (n=14) and (p=0.0024) and in […], (n=7) and (p=0.015).
Similar results were obtained with oral cancer cells (SCC-25).

## CC(=O)N(O)CCCCCNC(=O)CCC(=O)N(O)CCCCCNC(=O)CCC(=O)N(O)CCCCCN [DES, deferoxamine]
[1]; 5 mM DES, CS 120 minutes and saliva (FIG. 12)
  cellular death rate: 20.5%

## N[C@@H](CCC(=O)N[C@@H](CS)C(=O)NCC(=O)O)C(=O)O [GSH, L-c-glutamyl-L-cysteinyl-glycine]
[1]; 2 mM GSH, CS exposure alone, no saliva
  protection of cell survival (in words): no additional protection
[1]; 2 mM GSH, CS exposure, saliva-containing medium (30% v/v) (FIG. 9)
  increase of cell survival: more than 50%
[2]
  prevention of p53 downregulation (in words): totally preventing

## CC(C)(S)[C@@H](N)C(=O)O [PenA, D-penicillamine]
[3]; CS 60 minutes and saliva (FIG. 11)
  protein carbonyl content: 4.02 nmol/mg protein
[3]; CS 60 minutes, medium alone (FIG. 11)
  protein carbonyl content: 4.45 nmol/mg protein
[1]; 1 mM and 5 mM PenA, CS exposure, medium or medium + 30% saliva (FIG. 7)
  effect on survival rate, 1 mM versus 5 mM (in words): dose-dependent effect
[1]; 5 mM PenA, 120 minutes of exposure to CS, medium without saliva
  reduction of cells loss: 25%
[1]; 5 mM PenA, CS 120 minutes, medium + 30% saliva (FIG. 7)
  survival rate: 76.4%
[1]; 5 mM PenA, CS 120 minutes, medium alone, no saliva (FIG. 7)
  survival rate: 75.5%
[1]; 5 mM PenA, saliva supplemented to the medium prior to exposure to CS
  reduction of cells loss (in words): Reduction of cells loss was also observed
[1]; PenA, CS 120 minutes, medium alone, percent of control (FIG. 6A)
  increase of cells survival: 12%
[1]; PenA, CS 120 minutes, saliva-containing medium (30% v/v), percent of control (FIG. 6A)
  increase of cell survival: 20%
[4]; CS 120 minutes alone, no saliva (FIG. 14)
  protection against ΔΨm losses (in words): strong protection
[4]; CS 120 minutes and 33% saliva (FIG. 14)
  protection against ΔΨm losses (in words): no significant change
[5]; CS 120 minutes + 5 mM PenA + saliva
  Positive dead cells (%): 2.33%
[5]; CS 120 minutes + 5 mM PenA, no saliva
  Positive dead cells (%): 2.98%
[5]; Medium + 5 mM PenA + saliva, no CS
  Positive dead cells (%): 4.15%
[5]; Medium + 5 mM PenA, no CS, no saliva
  Positive dead cells (%): 3.75%
[6]
  amount of NAO bound to mitochondrial CL (in words): the same
[7]; absence of saliva (FIG. 18A)
  survival loss: 23%
[7]; saliva added to medium (FIG. 18B)
  survival loss: 22%
